We go through one compound from patent US20040198810A1 (H. Lundbeck A/S, priority 2001, published 2004).

Common to all, as to format: in vivo
Experiment [1] can be described thus: fixed dose studies (MADRS rating scale and Clinical Global Impression). Particulars: escitalopram in a dose of 10 mg.
The test system of experiment [2] is primary care patients with major depression disorder. The experiment is described as follows: 8-week, double-blind, randomised, placebo-controlled, flexible-dose clinical study. Particulars: Week 1 (p=0.023) to Week 4 (p=0.002), observed cases. The text has this: (§1) This has i.a. been found in the Chronic Mild Stress model (Willner P., Psychopharmachology 1997, 134, 319-329).
A total of 471 patients were randomised into the study. The all-patient-treated set comprised 469 patients and the full-analysis set comprised 468 patients.
There was an approximately 3 to 1 ratio of women to men in each treatment group, and almost all patients were Caucasian. The mean age was 43 years (SD 11). At baseline, the mean MADRS total score was approximately 29 for the treatment group, which signifies moderate to severely ill patients.

Experiment [3] relates to Chronic Mild Stress model. Nature of the experiment: Chronic Mild Stress model. Particulars: animal models.
Excerpt: as §1

Regarding `CN(C)CCC[C@@]1(c2ccc(F)cc2)OCc2cc(C#N)ccc21` [escitalopram, (S)-1-[3-(dimethylamino)propyl]-1-(4-fluorophenyl)-1,3-dihydro-5-isobenzofurancarbonitrile], the “effect as determined by the MADRS rating scale and Clinical Global Impression (severity as well as improvement)” value in experiment [1] was “at least same effect as citalopram in a dose of 40 mg”. In addition, in experiment [2], the “therapeutic effect versus placebo, adjusted mean change in MADRS total score” value is “significantly superior therapeutic effect”. In addition, the speed of response entry in experiment [3] was “faster response than citalopram-racemate”.
